# Data from US9174994B2, “Enhanced treatment regimens using mTor inhibitors” (INTELLIKINE LLC, priority 2011, dated 2015).
# Assay: Phase I clinical trial: treatment-emergent adverse events (patients, n (%)), dose limiting toxicity, MTD
# Assay type: in vivo
# Protocol: Safety, maximum tolerated dose (MTD), pharmacokinetics (PK) and preliminary antitumor activity were evaluated.
# Pharmacodynamic (PD) endpoints were evaluated in surrogate (peripheral blood cells [PBCs], skin) and tumor tissues for the phosphorylation of TORC1-dependent markers (4EBP1/S6), and TORC2-dependent markers (AKT/PRAS40).
compound,measurement,setting,value
CC(C)n1nc(-c2ccc3oc(N)nc3c2)c2c(N)ncnc21 [compound A],Rash macular,"6 mg/3 W, QDx3d QW (N = 3)",0 (0%)
same,Urinary tract infection,"6 mg/3 W, QDx3d QW (N = 3)",0 (0%)
same,Vomiting,"6 mg/3 W, QDx3d QW (N = 3)",1 (33%)
same,Asthenia,"6 mg/3 W, QDx3d QW (N = 3), 2nd Asthenia line",0 (0%)
same,Anaemia,6 mg/day (N = 7),0 (0%)
same,Asthenia,6 mg/day (N = 7),2 (29%)
same,Blood creatinine increased,6 mg/day (N = 7),1 (14%)
same,Coagulopathy,6 mg/day (N = 7),0 (0%)
same,Confusional state,6 mg/day (N = 7),0 (0%)
same,Cough,6 mg/day (N = 7),0 (0%)
same,Decreased appetite,6 mg/day (N = 7),1 (14%)
same,Dehydration,6 mg/day (N = 7),0 (0%)
same,Diarrhoea,6 mg/day (N = 7),5 (71%)
same,Dizziness,6 mg/day (N = 7),0 (0%)
same,Dry mouth,6 mg/day (N = 7),0 (0%)
same,Dry skin,6 mg/day (N = 7),0 (0%)
same,Dysgeusia,6 mg/day (N = 7),1 (14%)
same,Dyspepsia,6 mg/day (N = 7),0 (0%)
same,Dyspnoea,6 mg/day (N = 7),0 (0%)
same,Dyspnoea exertional,6 mg/day (N = 7),0 (0%)
same,Eye infection,6 mg/day (N = 7),1 (14%)
same,Fatigue,6 mg/day (N = 7),1 (14%)
same,Gastritis,6 mg/day (N = 7),0 (0%)
same,Gravitational oedema,6 mg/day (N = 7),0 (0%)
same,Hypercholesterolaemia,6 mg/day (N = 7),3 (43%)
same,Hyperglycaemia,6 mg/day (N = 7),7 (100%)
same,Hypocalcaemia,6 mg/day (N = 7),0 (0%)
same,Insomnia,6 mg/day (N = 7),1 (14%)
same,Lymphopenia,6 mg/day (N = 7),0 (0%)
same,Mucosal inflammation,6 mg/day (N = 7),2 (29%)
same,Muscle spasms,6 mg/day (N = 7),1 (14%)
same,Nausea,6 mg/day (N = 7),3 (43%)
same,Orthostatic hypotension,6 mg/day (N = 7),0 (0%)
same,Panniculitis,6 mg/day (N = 7),0 (0%)
same,Patients Reporting at Least One Related TEAE,6 mg/day (N = 7),7 (100%)
same,Polyuria,6 mg/day (N = 7),0 (0%)
same,Pruritus,6 mg/day (N = 7),5 (71%)
same,Rash,6 mg/day (N = 7),5 (71%)
same,Skin discolouration,6 mg/day (N = 7),0 (0%)
same,Skin exfoliation,6 mg/day (N = 7),0 (0%)
same,Thrombocytopenia,6 mg/day (N = 7),0 (0%)
same,Vomiting,6 mg/day (N = 7),3 (43%)
same,Weight decreased,6 mg/day (N = 7),0 (0%)
same,Diarrhoea,"7 mg/5 W, QDx5d QW (N = 3)",1 (33%)
same,Patients Reporting at Least One Related TEAE,"7 mg/5 W, QDx5d QW (N = 3)",1 (33%)
same,Rash,"7 mg/5 W, QDx5d QW (N = 3)",1 (33%)
same,Urine tract infection,"7 mg/5 W, QDx5d QW (N = 3)",0 (0%)
same,Vomiting,"7 mg/5 W, QDx5d QW (N = 3)",0 (0%)
same,Nausea,"7 mg/5 W, QDx5d QW (N = 3), 1st Nausea line",0 (0%)
same,Nausea,"7 mg/5 W, QDx5d QW (N = 3), 2nd Nausea line",1 (33%)
same,Anaemia,7 mg/day (N = 8),2 (25%)
same,Asthenia,7 mg/day (N = 8),4 (50%)
same,Blood creatinine increased,7 mg/day (N = 8),4 (50%)
same,Coagulopathy,7 mg/day (N = 8),1 (13%)
same,Confusional state,7 mg/day (N = 8),1 (13%)
same,Cough,7 mg/day (N = 8),1 (13%)
same,Decreased appetite,7 mg/day (N = 8),3 (38%)
same,Dehydration,7 mg/day (N = 8),2 (25%)
same,Diarrhoea,7 mg/day (N = 8),3 (38%)
same,Dizziness,7 mg/day (N = 8),1 (13%)
same,Dry mouth,7 mg/day (N = 8),3 (38%)
same,Dry skin,7 mg/day (N = 8),1 (13%)
same,Dysgeusia,7 mg/day (N = 8),2 (25%)
same,Dyspepsia,7 mg/day (N = 8),0 (0%)
same,Dyspnoea,7 mg/day (N = 8),1 (13%)
same,Dyspnoea exertional,7 mg/day (N = 8),0 (0%)
same,Eye infection,7 mg/day (N = 8),0 (0%)
same,Fatigue,7 mg/day (N = 8),2 (25%)
same,Gastritis,7 mg/day (N = 8),1 (13%)
same,Gravitational oedema,7 mg/day (N = 8),1 (13%)
same,Hypercholesterolaemia,7 mg/day (N = 8),1 (13%)
same,Hyperglycaemia,7 mg/day (N = 8),8 (100%)
same,Hypocalcaemia,7 mg/day (N = 8),1 (13%)
same,Insomnia,7 mg/day (N = 8),0 (0%)
same,Lymphopenia,7 mg/day (N = 8),2 (25%)
same,Mucosal inflammation,7 mg/day (N = 8),4 (50%)
same,Muscle spasms,7 mg/day (N = 8),0 (0%)
same,Nausea,7 mg/day (N = 8),3 (38%)
same,Orthostatic hypotension,7 mg/day (N = 8),1 (13%)
same,Panniculitis,7 mg/day (N = 8),1 (13%)
same,Patients Reporting at Least One Related TEAE,7 mg/day (N = 8),8 (100%)
same,Polyuria,7 mg/day (N = 8),0 (0%)
same,Pruritus,7 mg/day (N = 8),2 (25%)
same,Rash,7 mg/day (N = 8),4 (50%)
same,Skin discolouration,7 mg/day (N = 8),1 (13%)
same,Skin exfoliation,7 mg/day (N = 8),1 (13%)
same,Thrombocytopenia,7 mg/day (N = 8),3 (38%)
same,Vomiting,7 mg/day (N = 8),3 (38%)
same,Weight decreased,7 mg/day (N = 8),1 (13%)
same,ASTHENIA,7 mg/week (N = 3),0 (0%)
same,ATHENIA,7 mg/week (N = 3),0 (0%)
same,Alanine aminotransferase increased,7 mg/week (N = 3),1 (33%)
same,Aspartate aminotransferase increased,7 mg/week (N = 3),1 (33%)
same,Asthenia,7 mg/week (N = 3),0 (0%)
same,Blood creatinine increased,7 mg/week (N = 3),0 (0%)
same,Blood triglycerides increased,7 mg/week (N = 3),0 (0%)
same,DIARRHEA,7 mg/week (N = 3),0 (0%)
same,Decreased appetite,7 mg/week (N = 3),0 (0%)
same,Diarrhoea,7 mg/week (N = 3),1 (33%)
same,Dysgeusia,7 mg/week (N = 3),1 (33%)
same,Dyspepsia,7 mg/week (N = 3),0 (0%)
same,HYPERGLYCEMIA,7 mg/week (N = 3),0 (0%)
same,Hyperglycaemia,7 mg/week (N = 3),1 (33%)
same,Lymphopenia,7 mg/week (N = 3),1 (33%)
same,Malaise,7 mg/week (N = 3),0 (0%)
same,Mucosal inflammation,7 mg/week (N = 3),0 (0%)
same,Muscle spasms,7 mg/week (N = 3),0 (0%)
same,Nausea,7 mg/week (N = 3),1 (33%)
